Assay results taken from publication PMC12692861, “Biotin-Linked Ursolic Acid Conjugates as Selective Anticancer Agents and Target-Identification Tools for Cancer Therapy” (Molecules, 2025).

Legend:
[1] = molecular target: ATP synthase subunit O (Homo sapiens, UniProt P48047); test: Streptavidin pulldown proteomics (LC-MS/MS), 5637 cells; format: binding; details: 5637, 50 µM
Description: (§1) We used proteomics to identify potential molecular targets of 5c. A pulldown assay with streptavidin-agarose-coated magnetic beads was performed. Briefly, 5637 and MB49 cells were incubated with 50 µM 5c for 10 min and 1 h. After incubation, the cells were rinsed three times with cold phosphate-buffered saline (PBS), and cell lysates were prepared and clarified by centrifugation to remove cellular debris, including nuclei. The clarified lysates were incubated with streptavidin-coated magnetic beads to selectively bind biotinylated contents. Bound proteins were separated from unbound proteins through thorough bead washing. Proteins attached to the beads were eluted and analyzed on an Orbitrap Fusion Tribrid mass spectrometer (Thermo Scientific, New York, NY, USA) coupled with an Ultimate 3000 nano-UPLC system. Samples were trapped on a PepMap100 C18 trap column (5 µm, 0.3 × 5 mm) and separated on a PepMap RSLC C18 column (2 µm, 75 µm × 150 mm) using a gradient from 2 to 40% acetonitrile with 0.1% formic acid over 120 min at […] and 40 °C. MS data were acquired in positive mode using data-dependent acquisition (DDA), with precursor scans at 120,000 FWHM (400–2000 m/z), and MS/MS scans in top-speed mode (3 s cycle) using HCD fragmentation (NCE 32%). Proteins were identified and quantified based on peptide spectral matches (PSMs), and fold enrichment compared to controls was calculated to evaluate interaction strength.
(§2) The 5637 and MB49 cells were cultured and treated with higher concentrations of 5c (50 µM) for short period of times (10 min & 60 min) followed by whole cell lysis (WCL) preparation of both treated and untreated cells using modified RIPA buffer [NaCl (100mM), TrisCl (20mM, pH 7.4), EDTA (10 mM), TritonX-100 (0.5%), Glycerol (5%), Protease inhibitor cocktail (1x)] with gentle continuous rotation. The protein content of each WCL was estimated using Pierce™ BCA Protein Assay kit (Thermo-Scientific # 23225). The 100 µL of resuspended Dynabeads™ MyOne™ Streptavidin C1 (Invitrogen # 65001) were washed with PBST (PBS with 0.01% Tween™20) in a magnet stand as recommended in the manufacturer’s instructions. The washed beads were incubated with 200 µg of each WCL in separate tubes at room temperature for 2 h in a gentle end-over-end mixing. After incubation, beads were washed 3–5 times with PBST (0.01% Tween-20) on a magnetic stand and beads were decanted by after spinning and magnetization. The samples were stored at −80 °C till further analysis using LC-MS/MS by the Proteomics and Mass Spectrometry Core Laboratory of Augusta University.

[2] = molecular target: Elongation factor 1-gamma (EF1γ) (Homo sapiens, UniProt P26641); test: as above; format: binding; details: 5637, 50 µM
Description: as §1, §2

[3] = molecular target: Splicing factor U2AF 65 kDa subunit (U2AF65) (Homo sapiens, UniProt P26368); test: as above; format: binding; details: 5637, 50 µM
Chain of Splicing factor U2AF 65 kDa subunit (U2AF65) (Homo sapiens, UniProt P26368) (P26368 whole entry, one chain of several): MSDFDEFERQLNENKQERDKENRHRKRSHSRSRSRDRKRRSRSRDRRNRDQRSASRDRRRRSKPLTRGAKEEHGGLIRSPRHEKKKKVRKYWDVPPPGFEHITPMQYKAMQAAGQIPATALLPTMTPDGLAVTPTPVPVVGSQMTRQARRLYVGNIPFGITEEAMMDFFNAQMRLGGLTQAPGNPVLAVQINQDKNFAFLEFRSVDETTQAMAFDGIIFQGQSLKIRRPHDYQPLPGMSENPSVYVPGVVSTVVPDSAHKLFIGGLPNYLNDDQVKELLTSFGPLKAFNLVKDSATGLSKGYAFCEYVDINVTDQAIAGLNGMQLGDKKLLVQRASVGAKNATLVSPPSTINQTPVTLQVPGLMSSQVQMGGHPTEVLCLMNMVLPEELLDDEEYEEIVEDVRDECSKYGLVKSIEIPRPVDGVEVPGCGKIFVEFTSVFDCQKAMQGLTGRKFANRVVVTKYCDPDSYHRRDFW
Description: as §1, §2

[4] = molecular target: Elongation factor 2 (eEF2) (Homo sapiens, UniProt P13639); test: as above; format: binding; details: 5637, 50 µM
Description: as §1, §2

[5] = molecular target: Ras GTPase-activating-like protein IQGAP1 (Homo sapiens, UniProt P46940); test: as above; format: binding; details: 5637, 50 µM
Description: as §1, §2

[6] = molecular target: Histone H2A type 2-C (HIST2H2AC) (Homo sapiens, UniProt Q16777); test: as above; format: binding; details: 5637, 50 µM
Description: as §1, §2

[7] = molecular target: ATP synthase subunit alpha (Homo sapiens, UniProt P25705); test: as above; format: binding; details: 5637, 50 µM
Description: as §1, §2

[8] = molecular target: D-3-phosphoglycerate dehydrogenase (Homo sapiens, UniProt O43175); test: as above; format: binding; details: 5637, 50 µM
Description: as §1, §2

[9] = molecular target: T-complex protein 1 subunit theta (Homo sapiens, UniProt P50990); test: as above; format: binding; details: 5637, 50 µM
Chain of T-complex protein 1 subunit theta (Homo sapiens, UniProt P50990) (P50990 whole entry, one chain of several): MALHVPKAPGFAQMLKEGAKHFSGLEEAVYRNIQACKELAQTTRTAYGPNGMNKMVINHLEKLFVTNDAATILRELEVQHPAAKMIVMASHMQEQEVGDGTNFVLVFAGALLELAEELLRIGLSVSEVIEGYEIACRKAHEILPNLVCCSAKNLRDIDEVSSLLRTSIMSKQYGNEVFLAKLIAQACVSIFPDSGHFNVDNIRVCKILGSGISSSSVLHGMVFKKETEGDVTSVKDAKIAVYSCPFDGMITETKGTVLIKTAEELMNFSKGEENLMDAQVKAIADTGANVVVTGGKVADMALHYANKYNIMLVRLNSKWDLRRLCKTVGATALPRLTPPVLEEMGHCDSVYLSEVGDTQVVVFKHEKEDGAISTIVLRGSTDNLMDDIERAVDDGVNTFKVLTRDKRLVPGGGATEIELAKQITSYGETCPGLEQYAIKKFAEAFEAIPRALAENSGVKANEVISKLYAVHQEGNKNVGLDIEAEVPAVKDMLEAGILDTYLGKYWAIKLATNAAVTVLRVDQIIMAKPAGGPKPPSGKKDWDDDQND
Description: as §1, §2

[10] = molecular target: Histone H2A.Z (Homo sapiens, UniProt P0C0S5); test: as above; format: binding; details: 5637, 50 µM
Description: as §1, §2

[11] = molecular target: Rab-like protein 6 (RABL6) (Homo sapiens, UniProt Q3YEC7); test: as above; format: binding; details: 5637, 50 µM
Description: as §1, §2

[12] = molecular target: Filamin-A (FLNA) (Homo sapiens, UniProt P21333); test: as above; format: binding; details: 5637, 50 µM
Chain of Filamin-A (FLNA) (P21333 whole entry): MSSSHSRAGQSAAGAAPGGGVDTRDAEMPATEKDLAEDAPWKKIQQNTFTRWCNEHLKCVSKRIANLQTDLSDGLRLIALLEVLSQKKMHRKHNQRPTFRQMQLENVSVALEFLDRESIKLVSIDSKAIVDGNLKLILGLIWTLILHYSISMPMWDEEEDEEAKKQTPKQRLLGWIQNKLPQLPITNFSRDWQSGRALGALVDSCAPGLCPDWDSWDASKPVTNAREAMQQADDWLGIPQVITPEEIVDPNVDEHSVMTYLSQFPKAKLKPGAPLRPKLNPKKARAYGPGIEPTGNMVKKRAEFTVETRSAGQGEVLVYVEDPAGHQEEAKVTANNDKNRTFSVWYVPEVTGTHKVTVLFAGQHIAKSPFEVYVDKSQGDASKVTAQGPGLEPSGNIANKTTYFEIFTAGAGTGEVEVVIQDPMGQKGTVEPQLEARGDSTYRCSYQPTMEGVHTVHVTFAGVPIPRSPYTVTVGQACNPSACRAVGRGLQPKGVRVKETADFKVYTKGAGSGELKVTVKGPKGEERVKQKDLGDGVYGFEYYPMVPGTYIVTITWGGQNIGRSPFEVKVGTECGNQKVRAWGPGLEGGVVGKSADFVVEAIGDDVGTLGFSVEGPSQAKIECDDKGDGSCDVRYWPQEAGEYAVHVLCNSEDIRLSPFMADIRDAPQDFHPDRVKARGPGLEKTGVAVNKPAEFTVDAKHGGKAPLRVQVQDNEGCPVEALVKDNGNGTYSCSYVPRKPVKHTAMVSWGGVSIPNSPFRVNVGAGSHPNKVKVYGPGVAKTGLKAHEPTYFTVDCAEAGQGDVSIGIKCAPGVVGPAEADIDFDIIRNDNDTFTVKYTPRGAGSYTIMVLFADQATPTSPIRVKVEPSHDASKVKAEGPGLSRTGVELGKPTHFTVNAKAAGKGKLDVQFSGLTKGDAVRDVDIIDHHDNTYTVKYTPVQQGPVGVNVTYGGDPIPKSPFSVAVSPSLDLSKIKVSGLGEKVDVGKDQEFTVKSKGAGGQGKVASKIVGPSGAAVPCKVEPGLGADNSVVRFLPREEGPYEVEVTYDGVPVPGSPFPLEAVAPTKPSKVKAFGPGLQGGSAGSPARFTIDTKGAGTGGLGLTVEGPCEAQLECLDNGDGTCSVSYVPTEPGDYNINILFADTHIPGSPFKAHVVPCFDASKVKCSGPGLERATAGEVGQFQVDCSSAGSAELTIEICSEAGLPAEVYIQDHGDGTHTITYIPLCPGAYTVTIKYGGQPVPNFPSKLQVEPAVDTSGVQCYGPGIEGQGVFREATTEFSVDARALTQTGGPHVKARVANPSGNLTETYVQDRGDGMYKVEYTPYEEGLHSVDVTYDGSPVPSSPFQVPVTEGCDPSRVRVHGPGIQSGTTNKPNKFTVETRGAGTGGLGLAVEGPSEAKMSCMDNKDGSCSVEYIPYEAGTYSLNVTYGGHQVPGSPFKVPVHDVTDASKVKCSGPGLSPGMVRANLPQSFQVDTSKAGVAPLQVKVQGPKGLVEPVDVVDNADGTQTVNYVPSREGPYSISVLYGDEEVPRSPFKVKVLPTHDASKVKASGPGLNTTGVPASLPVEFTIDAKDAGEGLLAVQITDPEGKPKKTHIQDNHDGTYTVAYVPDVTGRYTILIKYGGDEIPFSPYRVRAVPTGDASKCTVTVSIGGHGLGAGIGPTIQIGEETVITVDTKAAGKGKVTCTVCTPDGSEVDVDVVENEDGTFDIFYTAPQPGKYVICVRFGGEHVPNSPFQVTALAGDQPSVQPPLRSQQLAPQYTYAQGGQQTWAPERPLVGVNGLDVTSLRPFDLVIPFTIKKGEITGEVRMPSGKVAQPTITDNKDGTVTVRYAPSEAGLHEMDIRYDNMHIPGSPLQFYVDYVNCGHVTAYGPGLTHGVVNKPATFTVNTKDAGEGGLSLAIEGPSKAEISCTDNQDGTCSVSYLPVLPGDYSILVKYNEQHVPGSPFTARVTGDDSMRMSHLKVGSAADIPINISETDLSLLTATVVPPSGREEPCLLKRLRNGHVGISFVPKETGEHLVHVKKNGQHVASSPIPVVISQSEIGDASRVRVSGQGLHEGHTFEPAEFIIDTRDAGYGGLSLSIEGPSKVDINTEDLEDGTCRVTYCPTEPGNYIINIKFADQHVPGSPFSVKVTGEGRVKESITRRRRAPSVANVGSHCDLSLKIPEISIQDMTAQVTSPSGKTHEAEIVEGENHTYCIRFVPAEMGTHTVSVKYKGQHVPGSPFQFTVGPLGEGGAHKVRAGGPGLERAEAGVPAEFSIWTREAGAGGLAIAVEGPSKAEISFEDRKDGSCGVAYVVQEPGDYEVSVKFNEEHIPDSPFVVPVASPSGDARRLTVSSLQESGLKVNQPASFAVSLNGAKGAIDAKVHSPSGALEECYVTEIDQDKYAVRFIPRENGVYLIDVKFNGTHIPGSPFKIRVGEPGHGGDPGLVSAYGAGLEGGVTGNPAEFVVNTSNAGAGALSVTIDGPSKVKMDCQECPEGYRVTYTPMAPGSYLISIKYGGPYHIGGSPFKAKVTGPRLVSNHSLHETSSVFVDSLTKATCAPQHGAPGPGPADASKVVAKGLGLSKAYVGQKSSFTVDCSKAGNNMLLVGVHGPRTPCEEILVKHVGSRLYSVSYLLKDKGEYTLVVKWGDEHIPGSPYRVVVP
Description: as §1, §2

[13] = molecular target: Histone H2B type 1-M (Homo sapiens, UniProt Q99879); test: as above; format: binding; details: 5637, 50 µM
Description: as §1, §2

[14] = molecular target: Elongation factor 1-beta (EF1β) (Homo sapiens, UniProt P24534); test: as above; format: binding; details: 5637, 50 µM
Description: as §1, §2

[15] = molecular target: Heterogeneous nuclear ribonucleoprotein U (HNRNPU) (Homo sapiens, UniProt Q00839); test: as above; format: binding; details: 5637, 50 µM
Chain of Heterogeneous nuclear ribonucleoprotein U (HNRNPU) (Q00839 whole entry): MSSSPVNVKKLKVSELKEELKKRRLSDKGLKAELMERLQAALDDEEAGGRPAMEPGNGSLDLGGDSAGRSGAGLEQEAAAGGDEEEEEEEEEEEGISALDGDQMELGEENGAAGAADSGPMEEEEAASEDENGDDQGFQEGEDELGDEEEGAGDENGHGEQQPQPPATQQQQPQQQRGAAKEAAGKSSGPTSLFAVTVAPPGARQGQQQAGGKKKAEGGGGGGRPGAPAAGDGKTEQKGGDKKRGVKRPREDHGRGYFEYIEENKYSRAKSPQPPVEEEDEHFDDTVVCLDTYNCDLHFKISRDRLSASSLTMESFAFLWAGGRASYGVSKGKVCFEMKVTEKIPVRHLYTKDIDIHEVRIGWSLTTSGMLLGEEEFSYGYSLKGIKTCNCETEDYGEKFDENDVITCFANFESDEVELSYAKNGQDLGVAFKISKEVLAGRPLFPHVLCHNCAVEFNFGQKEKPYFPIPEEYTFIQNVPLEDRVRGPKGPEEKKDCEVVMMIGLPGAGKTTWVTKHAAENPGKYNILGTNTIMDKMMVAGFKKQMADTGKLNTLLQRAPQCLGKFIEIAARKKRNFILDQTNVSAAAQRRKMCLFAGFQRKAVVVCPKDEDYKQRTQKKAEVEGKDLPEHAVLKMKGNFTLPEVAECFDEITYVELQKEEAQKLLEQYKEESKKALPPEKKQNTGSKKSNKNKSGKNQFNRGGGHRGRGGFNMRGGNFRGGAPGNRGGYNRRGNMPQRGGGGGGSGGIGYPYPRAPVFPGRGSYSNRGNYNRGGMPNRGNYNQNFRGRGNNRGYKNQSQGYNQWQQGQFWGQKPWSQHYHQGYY
Description: as §1, §2

[16] = molecular target: Eukaryotic translation initiation factor 5B (eIF5B) (Homo sapiens, UniProt O60841); test: as above; format: binding; details: 5637, 50 µM
Description: as §1, §2

[17] = molecular target: Receptor of activated protein C kinase 1 (RACK1) (Homo sapiens, UniProt P63244); test: as above; format: binding; details: 5637, 50 µM
Description: as §1, §2

[18] = molecular target: Histone H4 (Homo sapiens, UniProt P62805); test: as above; format: binding; details: 5637, 50 µM
Description: as §1, §2

[19] = system: Splicing factor U2AF 65 kDa subunit (U2AF65); test: Streptavidin pulldown proteomics (LC-MS/MS), MB49 cells; format: binding, murine; details: MB-49, 50 µM
Description: as §1, §2

[20] = molecular target: Elongation factor 1-beta (EF1β) (Mus musculus, UniProt O70251); test: as above; format: binding, murine; details: MB-49, 50 µM
Description: as §1, §2

[21] = molecular target: Histone H2B type 1-M (Mus musculus, UniProt P10854); test: as above; format: binding, murine; details: MB-49, 50 µM
Description: as §1, §2

[22] = molecular target: T-complex protein 1 subunit theta (Mus musculus, UniProt P42932); test: as above; format: binding, murine; details: MB-49, 50 µM
Chain of T-complex protein 1 subunit theta (Mus musculus, UniProt P42932) (P42932 2-548 limits assumed, one chain of several): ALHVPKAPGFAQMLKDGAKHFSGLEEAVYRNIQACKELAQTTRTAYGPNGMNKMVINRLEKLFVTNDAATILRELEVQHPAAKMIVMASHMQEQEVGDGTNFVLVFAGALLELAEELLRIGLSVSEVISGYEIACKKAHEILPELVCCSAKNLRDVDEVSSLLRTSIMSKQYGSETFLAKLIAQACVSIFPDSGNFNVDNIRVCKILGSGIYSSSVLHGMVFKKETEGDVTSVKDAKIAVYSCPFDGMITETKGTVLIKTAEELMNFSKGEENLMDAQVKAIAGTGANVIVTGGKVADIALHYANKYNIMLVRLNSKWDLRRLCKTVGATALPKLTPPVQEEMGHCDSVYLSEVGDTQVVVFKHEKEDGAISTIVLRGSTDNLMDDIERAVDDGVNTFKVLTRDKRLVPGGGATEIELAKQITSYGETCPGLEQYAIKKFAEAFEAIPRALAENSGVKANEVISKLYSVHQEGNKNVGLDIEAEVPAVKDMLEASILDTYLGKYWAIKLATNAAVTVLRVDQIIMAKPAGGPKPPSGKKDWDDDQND
Description: as §1, §2

CC1CCC2(C(=O)OCCCCOC(=O)CCCCC3SCC4NC(=O)NC43)CCC3(C)C(=CCC4C5(C)CCC(O)C(C)(C)C5CCC43C)C2C1C [Compound 5c, 4-((5-((3aS,4S,6aR)-2-Oxohexahydro-1H-thieno [3,4-d]imidazol-4-yl)pentanoyl)oxy) butyl 3-hydroxy-urs-12-en-28-oate]
Fold Change 10 min/Ctrl [1]: 3 | Fold Change 1 h/Ctrl [1]: 3 | Fold Change 1 h/Ctrl [2]: 6 | Fold Change 10 min/Ctrl [3]: 14 | Fold Change 1 h/Ctrl [3]: 10 | Fold Change 10 min/Ctrl [4]: 44 | Fold Change 1 h/Ctrl [4]: 50 | Fold Change 10 min/Ctrl [5]: 3.5 | Fold Change 1 h/Ctrl [5]: 2.25 | Fold Change 10 min/Ctrl [6]: 3.48 | Fold Change 1 h/Ctrl [6]: 3.04 | Fold Change 10 min/Ctrl [7]: 1.63 | Fold Change 1 h/Ctrl [7]: 2 | Fold Change 10 min/Ctrl [8]: 15 | Fold Change 1 h/Ctrl [8]: 10 | Fold Change 10 min/Ctrl [9]: 14 | Fold Change 1 h/Ctrl [9]: 12 | Fold Change 10 min/Ctrl [10]: 5.85 | Fold Change 1 h/Ctrl [10]: 4.78 | Fold Change 10 min/Ctrl [11]: 1.33 | Fold Change 1 h/Ctrl [11]: 2.67 | Fold Change 10 min/Ctrl [12]: 16 | Fold Change 1 h/Ctrl [12]: 18 | Fold Change 10 min/Ctrl [13]: 3.16 | Fold Change 1 h/Ctrl [13]: 1.37 | Fold Change 10 min/Ctrl [14]: 2.35 | Fold Change 1 h/Ctrl [14]: 2.35 | Fold Change 10 min/Ctrl [15]: 4.33 | Fold Change 1 h/Ctrl [15]: 4.33 | Fold Change 10 min/Ctrl [16]: 32 | Fold Change 1 h/Ctrl [16]: 34 | Fold Change 10 min/Ctrl [17]: 6 | Fold Change 1 h/Ctrl [17]: 6 | Fold Change 10 min/Ctrl [18]: 13.23 | Fold Change 1 h/Ctrl [18]: 11.08 | Fold Change 10 min/Ctrl [19]: 4 | Fold Change 1 h/Ctrl [19]: 3 | Fold Change 10 min/Ctrl [20]: 5 | Fold Change 1 h/Ctrl [20]: 5 | Fold Change 10 min/Ctrl [21]: 2.04 | Fold Change 1 h/Ctrl [21]: 1.81 | Fold Change 10 min/Ctrl [22]: 2 | Fold Change 1 h/Ctrl [22]: 3
